The text below walks through data of PubChem BioAssay AID280 (DTP/NCI, 2004).

“And” between values parts separate entries of the source, which are not always exact repeats. Identical values can stand only once. Toxic doses and inconclusive results are not listed.

In this test the test system is nude mice, LOX melanoma ip, survival T/C. The test is described as follows: NCI In Vivo Anticancer Drug Screen. Data for tumor model Human Amelanotic Melanoma (LOX) (intraperitoneal) in NU/NU BALB/C (nude) mice. To be noted: endpoint: median survival time, schedule: Q04DX003 (ip), higher = longer survival. Here is the method: The antitumor activity of compounds was measured in mice bearing transplantable tumors. Survival or tumor size were measured and the results are expressed as the measurement made in the treated group (T) divided by the measurement made in the vehicle treated control group (C). The tumor model used in this assay is Human Amelanotic Melanoma (LOX) (intraperitoneal) in NU/NU BALB/C (nude) mice

The mark [1] stands for this setting: dose: 12.5 mg/kg/injection, vehicle: saline with Tween-80.
The mark [2] stands for this setting: dose: 25.0 mg/kg/injection, vehicle: saline with Tween-80.
[3] abbreviates: dose: 50.0 mg/kg/injection, vehicle: saline with Tween-80.

For `[NH-]C(CCC(N)=O)C(=O)O.[NH-]C(CCC(N)=O)C(=O)O.[Zn+2]` (stereo not drawn), the T/C is 94 % of control under setting [1], 94 % of control under setting [2] and 118 % of control under setting [3].
On to `CN(C)N=Nc1ccc(C(N)=O)cc1`, for which the T/C runs as follows: (dose: 22.5 mg/kg/injection, vehicle: saline with Tween-80) 99 % of control; (dose: 45.0 mg/kg/injection, vehicle: saline with Tween-80) 120 % of control; (dose: 180.0 mg/kg/injection, vehicle: saline with Tween-80) 153 % of control; (dose: 360.0 mg/kg/injection, vehicle: saline with Tween-80) 210 % of control.
In the case of `CCCCN1C(=O)N(c2ccc(OCC)cc2)C2N(CCCC)C1C(C)(C)C2(C)C` (stereo not drawn), the T/C (dose: 15.0 mg/kg/injection, vehicle: saline with Tween-80) is 101 % of control; the T/C (dose: 30.0 mg/kg/injection, vehicle: saline with Tween-80) is 107 % of control; the T/C (dose: 60.0 mg/kg/injection, vehicle: saline with Tween-80) was 101 % of control and 102 % of control; the T/C (dose: 120.0 mg/kg/injection, vehicle: saline with Tween-80) was 101 % of control; the T/C (dose: 240.0 mg/kg/injection, vehicle: saline with Tween-80) was 98 % of control.
For the molecule `CO[C@@]12[C@@H]3N[C@@H]3CN1C1=C(C(=O)C(NCCc3ccccn3)=C(C)C1=O)[C@@H]2COC(N)=O`, the T/C reads like this: (dose: 1.5 mg/kg/injection, vehicle: saline with Tween-80) 187 % of control; (dose: 3.12 mg/kg/injection, vehicle: saline with Tween-80) 192 % of control; (dose: 3.13 mg/kg/injection, vehicle: saline with Tween-80) 159 % of control; (dose: 6.25 mg/kg/injection, vehicle: saline with Tween-80) 179 % of control and 198 % of control; under setting [1], 317 % of control and 340 % of control; under setting [2], 317 % of control and 340 % of control.
Take `CNC(=O)/C=C/C1=CN2C(=O)c3ccc(C)c(O)c3NC(OC)C2C1` (stereo not drawn): the T/C (dose: 200.0 micrograms/kg/injection, vehicle: saline) is 121 % of control.
Regarding `C/C(=N\NC(=S)N1CCN(c2ccccn2)CC1)c1ccccn1`, the T/C runs as follows: (dose: 10.0 mg/kg/injection, vehicle: water) 89 % of control; (dose: 20.0 mg/kg/injection, vehicle: water) 95 % of control; (dose: 40.0 mg/kg/injection, vehicle: water) 94 % of control; (dose: 80.0 mg/kg/injection, vehicle: water) 97 % of control.
As for `CC(CNC(=O)C12CC3CC(CC(C3)C1)C2)NC(=O)C12CC3CC(CC(C3)C1)C2` (stereo not drawn), the T/C is, setting by setting: (dose: 25.0 mg/kg/injection, vehicle: DMSO) 101 % of control; (dose: 50.0 mg/kg/injection, vehicle: DMSO) 107 % of control; (dose: 100.0 mg/kg/injection, vehicle: DMSO) 101 % of control; (dose: 200.0 mg/kg/injection, vehicle: DMSO) 102 % of control.
`CC[C@@H](C)[C@H]([C@H](CC(=O)N1CCC[C@@H]1[C@@H](OC)[C@H](C)C(=O)N[C@H](Cc1ccccc1)c1nccs1)OC)N(C)C(=O)[C@H](NC(=O)[C@@H](C(C)C)N(C)C)C(C)C`: the T/C by setting is: (dose: 3.0 micrograms/kg/injection, vehicle: saline + alcohol) 109 % of control; (dose: 3.25 micrograms/kg/injection, vehicle: saline + alcohol) 170 % of control; (dose: 6.0 micrograms/kg/injection, vehicle: saline + alcohol) 113 % of control; (dose: 6.5 micrograms/kg/injection, vehicle: saline + alcohol) 206 % of control; (dose: 9.0 micrograms/kg/injection, vehicle: saline + alcohol) 115 % of control; (dose: 13.0 micrograms/kg/injection, vehicle: saline + alcohol) 301 % of control. In addition, the T/C is, setting by setting: (dose: 15.0 micrograms/kg/injection, vehicle: saline + alcohol) 192 % of control; (dose: 26.0 micrograms/kg/injection, vehicle: saline + alcohol) 181 % of control and 301 % of control; (dose: 43.0 micrograms/kg/injection, vehicle: saline + alcohol) 340 % of control.
With `C/C(=N\NC(=S)N1CC2CCC(CC2)C1)c1nccs1`, the T/C under setting [1] is 101 % of control; the T/C under setting [2] was 107 % of control; the T/C under setting [3] was 118 % of control; the T/C (dose: 100.0 mg/kg/injection, vehicle: saline with Tween-80) is 118 % of control.
For the molecule `Nc1ccn([C@@H](C=O)C[C@@H](C=O)CO)c(=O)n1`, the T/C by setting is: (dose: 18.75 mg/kg/injection, vehicle: saline) 105 % of control; (dose: 37.5 mg/kg/injection, vehicle: saline) 107 % of control; (dose: 75.0 mg/kg/injection, vehicle: saline) 103 % of control; (dose: 150.0 mg/kg/injection, vehicle: saline) 103 % of control; (dose: 300.0 mg/kg/injection, vehicle: saline) 102 % of control.
Turning to `Oc1ccc(/C=N/Nc2nnc(N/N=C/c3ccc(O)cc3O)c3ccccc23)c(O)c1`, the T/C by setting is: (dose: 12.5 mg/kg/injection, vehicle: suspension in saline) 120 % of control; (dose: 25.0 mg/kg/injection, vehicle: suspension in saline) 119 % of control.
Turning to `O=C(NC(Cc1ccc(I)cc1)C(=O)O)c1ccc(Br)cc1` (stereo not drawn), the T/C is 94 % of control (dose: 18.75 mg/kg/injection, vehicle: other); 111 % of control (dose: 18.75 mg/kg/injection, vehicle: sodium bicarbonate); 151 % of control (dose: 37.5 mg/kg/injection, vehicle: other); 107 % of control (dose: 37.5 mg/kg/injection, vehicle: sodium bicarbonate); 91 % of control (dose: 75.0 mg/kg/injection, vehicle: other); 96 % of control (dose: 75.0 mg/kg/injection, vehicle: sodium bicarbonate). For the same molecule, the T/C by setting is: (dose: 150.0 mg/kg/injection, vehicle: other) 98 % of control; (dose: 150.0 mg/kg/injection, vehicle: sodium bicarbonate) 86 % of control; (dose: 300.0 mg/kg/injection, vehicle: sodium bicarbonate) 106 % of control.
Consider `c1ccc2c3c(c4c(c2c1)CN(C1CCCCC1)CO4)OCN(C1CCCCC1)C3`, for which the T/C by setting is: (dose: 18.75 mg/kg/injection, vehicle: water) 102 % of control; (dose: 37.5 mg/kg/injection, vehicle: water) 107 % of control; (dose: 75.0 mg/kg/injection, vehicle: water) 123 % of control.
With `CCCCNP1(NCCCC)=NP(NCCCC)(NCCCC)=NP(NCCCC)(NCCCC)=NP(NCCCC)(NCCCC)=N1`, the T/C is 116 % of control (dose: 32.4 mg/kg/injection, vehicle: saline with Tween-80); 105 % of control and 98 % of control (dose: 54.0 mg/kg/injection, vehicle: saline with Tween-80); 113 % of control (dose: 75.0 mg/kg/injection, vehicle: saline with Tween-80); 105 % of control and 120 % of control (dose: 90.0 mg/kg/injection, vehicle: saline with Tween-80).
